ChEMBL document CHEMBL5543146 (J Med Chem, 2024)
Values belong to the compound of their own block, whether it stands above or below them.

What was measured:
[1] = target: T1, Fibroblast growth factor receptor 4 (Homo sapiens, UniProt P22455); test: Inhibition of N-terminal GST tagged cytoplasmic domain human FGFR4 (460 to 802 residues) expressed in Escherichia coli BL21 (DE3) using CSox as substrate incubated for 240 mins in presence of ATP by hotspot assay
Target sequence in this assay (P22455 whole entry, the tested form may be a part): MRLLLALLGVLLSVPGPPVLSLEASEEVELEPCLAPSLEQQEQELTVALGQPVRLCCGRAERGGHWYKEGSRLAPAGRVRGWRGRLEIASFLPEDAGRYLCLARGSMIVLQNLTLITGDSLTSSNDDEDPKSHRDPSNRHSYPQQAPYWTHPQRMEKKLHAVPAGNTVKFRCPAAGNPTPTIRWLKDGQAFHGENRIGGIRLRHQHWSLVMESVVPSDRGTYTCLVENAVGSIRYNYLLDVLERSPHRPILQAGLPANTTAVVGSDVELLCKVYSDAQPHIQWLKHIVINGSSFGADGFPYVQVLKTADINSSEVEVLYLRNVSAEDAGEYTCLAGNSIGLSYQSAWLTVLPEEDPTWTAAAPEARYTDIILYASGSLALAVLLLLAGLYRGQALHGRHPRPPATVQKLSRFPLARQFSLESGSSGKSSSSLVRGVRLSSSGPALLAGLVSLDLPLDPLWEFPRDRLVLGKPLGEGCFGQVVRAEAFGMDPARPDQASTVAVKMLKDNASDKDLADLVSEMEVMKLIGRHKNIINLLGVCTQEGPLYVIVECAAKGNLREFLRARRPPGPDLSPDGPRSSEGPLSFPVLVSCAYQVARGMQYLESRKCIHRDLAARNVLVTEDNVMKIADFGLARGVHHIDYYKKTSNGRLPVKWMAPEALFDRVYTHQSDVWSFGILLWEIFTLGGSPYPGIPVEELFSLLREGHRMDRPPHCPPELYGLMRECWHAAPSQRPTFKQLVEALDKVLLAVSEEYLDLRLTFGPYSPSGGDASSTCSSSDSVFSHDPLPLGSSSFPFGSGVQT

[2] = target: T1, Fibroblast growth factor receptor 4; test: Inhibition of N-terminal GST tagged cytoplasmic domain human FGFR4 (460 to 802 residues) expressed in Escherichia coli BL21 (DE3) using CSox as substrate assessed as residual activity at 5 uM incubated for 240 mins in presence of ATP by hotspot assay relative to control
Target sequence in this assay (P22455 22-802 limits assumed): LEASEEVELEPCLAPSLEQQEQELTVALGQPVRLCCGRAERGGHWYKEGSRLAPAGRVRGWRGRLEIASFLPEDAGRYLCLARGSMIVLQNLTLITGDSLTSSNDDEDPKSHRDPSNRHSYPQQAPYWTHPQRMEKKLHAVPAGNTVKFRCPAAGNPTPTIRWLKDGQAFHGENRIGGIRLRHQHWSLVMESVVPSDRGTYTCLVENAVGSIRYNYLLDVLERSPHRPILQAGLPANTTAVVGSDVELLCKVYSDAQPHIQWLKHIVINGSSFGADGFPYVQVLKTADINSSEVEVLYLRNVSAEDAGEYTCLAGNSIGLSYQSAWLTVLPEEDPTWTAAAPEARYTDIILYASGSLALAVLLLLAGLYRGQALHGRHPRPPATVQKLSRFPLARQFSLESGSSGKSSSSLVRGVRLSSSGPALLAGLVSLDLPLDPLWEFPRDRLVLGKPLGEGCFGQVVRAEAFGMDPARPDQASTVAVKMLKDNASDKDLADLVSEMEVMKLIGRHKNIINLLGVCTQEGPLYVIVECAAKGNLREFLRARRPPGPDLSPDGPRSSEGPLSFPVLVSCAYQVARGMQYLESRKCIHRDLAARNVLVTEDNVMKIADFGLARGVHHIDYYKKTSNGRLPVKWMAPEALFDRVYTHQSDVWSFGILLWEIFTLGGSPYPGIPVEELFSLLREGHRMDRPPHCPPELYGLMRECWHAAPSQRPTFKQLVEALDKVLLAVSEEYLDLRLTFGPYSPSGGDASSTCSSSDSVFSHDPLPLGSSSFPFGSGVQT

[3] = target: T2, Fibroblast growth factor receptor 3 (Homo sapiens, UniProt P22607); test: Binding affinity to FGFR3 (unknown origin) assessed as change in melting temperature by differential scanning fluorimetry analysis
[4] = target: T3, Fibroblast growth factor receptor 1 (Homo sapiens, UniProt P11362); test: Inhibition of full length nanoluc-fused FGFR1 transfected in HEK293T cells assessed as target engagement incubated for 3 hrs in presence of K10 tracer by Nano BRET assay; assay type: cell-based
[5] = target: T4, Fibroblast growth factor receptor 2 (Homo sapiens, UniProt P21802); test: Inhibition of full length nanoluc-fused FGFR2 transfected in HEK293T cells assessed as target engagement incubated for 3 hrs in presence of K10 tracer by Nano BRET assay; assay type: cell-based
[6] = target: T2, Fibroblast growth factor receptor 3; test: Inhibition of full length nanoluc-fused FGFR3 transfected in HEK293T cells assessed as target engagement incubated for 3 hrs in presence of K10 tracer by Nano BRET assay; assay type: cell-based
Target sequence in this assay (P22607 whole entry, the tested form may be a part): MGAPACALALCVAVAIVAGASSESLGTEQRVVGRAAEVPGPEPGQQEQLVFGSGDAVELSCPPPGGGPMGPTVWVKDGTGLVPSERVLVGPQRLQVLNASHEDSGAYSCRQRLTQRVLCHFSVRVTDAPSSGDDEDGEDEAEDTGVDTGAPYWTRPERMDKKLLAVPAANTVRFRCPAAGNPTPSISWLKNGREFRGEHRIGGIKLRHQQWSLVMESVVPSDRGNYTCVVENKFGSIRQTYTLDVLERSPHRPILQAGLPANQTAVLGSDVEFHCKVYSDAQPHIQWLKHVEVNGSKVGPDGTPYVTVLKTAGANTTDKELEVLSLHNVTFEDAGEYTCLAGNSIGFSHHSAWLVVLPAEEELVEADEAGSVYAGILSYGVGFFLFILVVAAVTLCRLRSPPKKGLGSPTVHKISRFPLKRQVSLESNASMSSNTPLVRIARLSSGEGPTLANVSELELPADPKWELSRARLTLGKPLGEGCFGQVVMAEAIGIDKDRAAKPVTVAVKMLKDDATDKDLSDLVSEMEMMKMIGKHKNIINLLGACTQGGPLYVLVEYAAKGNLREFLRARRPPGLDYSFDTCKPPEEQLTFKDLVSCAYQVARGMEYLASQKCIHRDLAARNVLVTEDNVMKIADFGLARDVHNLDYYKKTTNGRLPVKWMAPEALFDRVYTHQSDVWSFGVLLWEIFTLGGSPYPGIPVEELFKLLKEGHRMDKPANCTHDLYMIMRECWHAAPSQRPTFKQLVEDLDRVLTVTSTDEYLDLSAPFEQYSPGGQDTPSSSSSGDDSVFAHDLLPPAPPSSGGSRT

[7] = target: T1, Fibroblast growth factor receptor 4; test: Inhibition of full length nanoluc-fused FGFR4 transfected in HEK293T cells assessed as target engagement incubated for 3 hrs in presence of K10 tracer by Nano BRET assay; assay type: cell-based
Target sequence in this assay (P22455 whole entry, the tested form may be a part): as the sequence (P22455 whole entry, the tested form may be a part) above

[8] = Metabolic stability in human liver microsomes assessed as compound remaining measured after 2 hrs in presence of NADPH regenerating system measured upto 120 mins by LC-MS analysis; assay type: ADME, Microsome; details: read-out: Stability
Hep 3B2 = test: cells; details: Homo sapiens, Hep3B, 96 h
Description: Antiproliferative activity against human Hep3B cells measured after 4 days by Celltiter-glo based luminescent assay

[9] = target: T5, Dual specificity protein kinase TTK (Homo sapiens, UniProt P33981); test: Inhibition of human wild type TTK using RBER-CHKtide as substrate in presence of ATP by hotspot assay
T5 sequence (P33981 whole entry): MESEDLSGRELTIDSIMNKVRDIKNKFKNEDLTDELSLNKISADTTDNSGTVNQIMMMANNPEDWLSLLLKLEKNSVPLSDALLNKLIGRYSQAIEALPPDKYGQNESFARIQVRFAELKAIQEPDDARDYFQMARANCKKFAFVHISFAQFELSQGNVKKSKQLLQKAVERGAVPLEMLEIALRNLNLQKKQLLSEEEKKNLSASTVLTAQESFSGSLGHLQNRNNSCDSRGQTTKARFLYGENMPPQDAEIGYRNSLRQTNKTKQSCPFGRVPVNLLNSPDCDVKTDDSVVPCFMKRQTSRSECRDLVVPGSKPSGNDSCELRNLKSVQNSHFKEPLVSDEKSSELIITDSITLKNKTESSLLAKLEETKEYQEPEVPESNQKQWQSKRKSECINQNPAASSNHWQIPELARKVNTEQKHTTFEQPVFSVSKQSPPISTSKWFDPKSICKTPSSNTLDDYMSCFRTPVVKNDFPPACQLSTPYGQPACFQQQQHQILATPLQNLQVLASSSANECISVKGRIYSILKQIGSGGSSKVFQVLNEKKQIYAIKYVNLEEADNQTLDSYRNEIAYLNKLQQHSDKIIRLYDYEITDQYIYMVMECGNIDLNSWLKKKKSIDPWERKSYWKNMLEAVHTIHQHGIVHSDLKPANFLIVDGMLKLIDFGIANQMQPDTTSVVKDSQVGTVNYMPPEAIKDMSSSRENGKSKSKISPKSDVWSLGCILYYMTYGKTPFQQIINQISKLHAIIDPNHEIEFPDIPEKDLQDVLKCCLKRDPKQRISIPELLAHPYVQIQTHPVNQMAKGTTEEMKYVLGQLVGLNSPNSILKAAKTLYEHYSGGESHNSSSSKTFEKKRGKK

[10] = target: T1, Fibroblast growth factor receptor 4; test: Inhibition of N-terminal GST tagged cytoplasmic domain human FGFR4 (460 to 802 residues) expressed in Escherichia coli BL21 (DE3) by phosphosen-csox based assay
Target sequence in this assay (P22455 whole entry, the tested form may be a part): as the sequence (P22455 whole entry, the tested form may be a part) above

[11] = target: T4, Fibroblast growth factor receptor 2; test: Inhibition of human FGFR2 in presence of ATP by hotspot assay
[12] = target: T2, Fibroblast growth factor receptor 3; test: Inhibition of human wild type FGFR3 using polyEY as substrate in presence of ATP by hotspot assay
Target sequence in this assay (P22607 whole entry, the tested form may be a part): as the sequence (P22607 whole entry, the tested form may be a part) above

[13] = target: Ribosomal protein S6 kinase beta-2 (Homo sapiens, UniProt Q9UBS0); test: Inhibition of human wild type S6K2 using RBER-CHKtide as substrate in presence of ATP by hotspot assay
[14] = target: T1, Fibroblast growth factor receptor 4; test: Binding affinity to N-terminal GST tagged cytoplasmic domain human FGFR4 (460 to 802 residues) expressed in Escherichia coli BL21 (DE3) assessed as inhibition constant using sox as substrate incubated for 30 mins followed by enzyme addition and measured after 120 mins in presence of ATP by PhosphoSens CSox-based continuous assay
Target sequence in this assay (P22455 whole entry, the tested form may be a part): as the sequence (P22455 whole entry, the tested form may be a part) above

[15] = target: T3, Fibroblast growth factor receptor 1; test: Inhibition of human FGFR1 using poly[Glu:Tyr] (4:1) as substrate in presence of ATP by hotspot assay
[16] = target: MAP kinase-activated protein kinase 2 (Homo sapiens, UniProt P49137); test: Inhibition of human MAPKAPK2 using KKLNRTLSVA as substrate in presence of ATP by hotspot assay
[17] = target: MAP kinase-activated protein kinase 3 (Homo sapiens, UniProt Q16644); test: Inhibition of human MAPKAPK3 using KKLNRTLSVA as substrate in presence of ATP by hotspot assay
Sequence of MAP kinase-activated protein kinase 3 (Q16644 whole entry): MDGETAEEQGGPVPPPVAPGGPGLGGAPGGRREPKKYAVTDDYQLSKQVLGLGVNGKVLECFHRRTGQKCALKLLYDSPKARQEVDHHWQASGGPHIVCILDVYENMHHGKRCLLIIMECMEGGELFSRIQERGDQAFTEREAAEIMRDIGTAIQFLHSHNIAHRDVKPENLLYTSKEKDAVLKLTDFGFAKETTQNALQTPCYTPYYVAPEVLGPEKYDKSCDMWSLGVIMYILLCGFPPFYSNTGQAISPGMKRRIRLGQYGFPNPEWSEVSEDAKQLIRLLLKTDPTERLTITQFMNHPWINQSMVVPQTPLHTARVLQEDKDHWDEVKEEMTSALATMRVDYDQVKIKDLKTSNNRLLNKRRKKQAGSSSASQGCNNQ

T4 sequence (P21802 whole entry, the tested form may be a part): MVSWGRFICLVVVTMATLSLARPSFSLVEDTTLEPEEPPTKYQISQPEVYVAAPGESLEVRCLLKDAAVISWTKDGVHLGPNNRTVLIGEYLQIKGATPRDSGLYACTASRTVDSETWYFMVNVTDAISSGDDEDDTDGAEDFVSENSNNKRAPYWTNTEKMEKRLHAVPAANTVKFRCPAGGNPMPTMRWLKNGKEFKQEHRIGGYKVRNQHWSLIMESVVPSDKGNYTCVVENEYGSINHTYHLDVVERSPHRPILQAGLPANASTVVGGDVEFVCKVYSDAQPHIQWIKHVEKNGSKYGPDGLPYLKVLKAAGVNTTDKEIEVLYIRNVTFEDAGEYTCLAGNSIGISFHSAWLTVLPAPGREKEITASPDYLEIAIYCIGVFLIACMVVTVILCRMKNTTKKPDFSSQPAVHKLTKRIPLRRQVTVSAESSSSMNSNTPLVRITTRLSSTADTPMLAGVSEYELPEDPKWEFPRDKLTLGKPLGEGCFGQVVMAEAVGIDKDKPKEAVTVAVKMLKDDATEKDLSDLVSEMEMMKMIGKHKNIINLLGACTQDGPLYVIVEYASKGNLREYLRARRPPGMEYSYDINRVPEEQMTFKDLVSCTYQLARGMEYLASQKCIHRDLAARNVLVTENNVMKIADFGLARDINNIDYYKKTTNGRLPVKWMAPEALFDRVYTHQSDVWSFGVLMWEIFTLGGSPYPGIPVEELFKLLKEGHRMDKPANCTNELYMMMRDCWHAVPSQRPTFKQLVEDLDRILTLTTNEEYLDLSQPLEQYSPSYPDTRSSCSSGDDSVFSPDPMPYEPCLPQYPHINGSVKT
T3 sequence (P11362 whole entry, the tested form may be a part): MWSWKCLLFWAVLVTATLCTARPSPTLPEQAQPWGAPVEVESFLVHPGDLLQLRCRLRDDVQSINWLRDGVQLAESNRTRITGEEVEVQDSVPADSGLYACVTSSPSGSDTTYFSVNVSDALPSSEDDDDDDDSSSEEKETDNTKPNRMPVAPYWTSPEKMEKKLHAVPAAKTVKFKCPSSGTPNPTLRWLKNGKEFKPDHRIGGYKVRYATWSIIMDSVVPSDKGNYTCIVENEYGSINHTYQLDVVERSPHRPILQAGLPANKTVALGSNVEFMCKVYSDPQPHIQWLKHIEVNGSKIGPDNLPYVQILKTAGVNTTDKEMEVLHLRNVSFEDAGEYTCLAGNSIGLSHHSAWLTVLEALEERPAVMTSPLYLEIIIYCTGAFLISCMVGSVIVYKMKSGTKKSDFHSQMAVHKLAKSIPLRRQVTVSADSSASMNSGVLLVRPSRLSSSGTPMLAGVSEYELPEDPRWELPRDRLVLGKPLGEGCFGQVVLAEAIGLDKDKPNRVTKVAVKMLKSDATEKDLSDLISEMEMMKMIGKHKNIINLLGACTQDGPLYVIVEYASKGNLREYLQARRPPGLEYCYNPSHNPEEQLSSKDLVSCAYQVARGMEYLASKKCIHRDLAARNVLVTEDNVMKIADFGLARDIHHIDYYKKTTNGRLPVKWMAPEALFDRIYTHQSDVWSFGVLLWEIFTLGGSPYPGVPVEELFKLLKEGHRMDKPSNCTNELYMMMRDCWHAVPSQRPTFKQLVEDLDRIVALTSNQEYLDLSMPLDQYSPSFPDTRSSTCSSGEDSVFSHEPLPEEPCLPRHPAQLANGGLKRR
Sequence of Ribosomal protein S6 kinase beta-2 (Q9UBS0 whole entry, the tested form may be a part): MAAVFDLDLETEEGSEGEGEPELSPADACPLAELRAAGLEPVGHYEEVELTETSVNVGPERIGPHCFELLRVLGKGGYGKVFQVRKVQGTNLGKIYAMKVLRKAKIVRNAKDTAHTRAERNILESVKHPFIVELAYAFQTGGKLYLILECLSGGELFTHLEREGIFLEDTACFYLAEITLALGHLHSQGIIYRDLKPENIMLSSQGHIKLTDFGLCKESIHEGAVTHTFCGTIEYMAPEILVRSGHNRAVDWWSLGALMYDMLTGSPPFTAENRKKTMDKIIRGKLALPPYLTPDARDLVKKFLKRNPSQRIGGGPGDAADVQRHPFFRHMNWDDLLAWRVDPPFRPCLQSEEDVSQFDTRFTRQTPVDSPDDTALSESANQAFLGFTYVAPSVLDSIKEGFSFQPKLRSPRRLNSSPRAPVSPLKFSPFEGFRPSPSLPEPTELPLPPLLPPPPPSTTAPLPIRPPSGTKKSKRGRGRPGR

- IC50 [1]: 1700 nM
- Activity [2]: 89.4%
- ΔTm [3]: 4.5 °C
- EC50 [4]: 867 nM
- EC50 [5]: 867 nM
- EC50 [6]: 1780 nM
- EC50 [7]: 2260 nM
- remaining at 2 h [8]: > 80%
- EC50 (Hep 3B2): 1070 nM
Structure (SMILES): COc1cc(OC)c(Cl)c(-c2ccc3nc(Nc4ncccc4[N+](=O)[O-])ncc3c2)c1Cl

- IC50 [9]: > 5000 nM
- IC50 [1]: < 0.5 nM
- IC50 [10]: 1.2 nM
- IC50 [11]: 490 nM
- IC50 [12]: > 5000 nM
- IC50 [13]: 18.2 nM
- Ki [14]: 5.7 nM
- EC50 [5]: 1290 nM
- EC50 [6]: 1430 nM
- EC50 [7]: 52 nM
Structure (SMILES): COc1cc(OC)c(Cl)c(-c2ccc3nc(Nc4nc(Cl)ccc4[N+](=O)[O-])ncc3c2)c1Cl

- IC50 [1]: > 5000 nM
- Activity [2]: 97.9%
Structure (SMILES): COc1cc(OC)cc(-c2ccc3nc(Sc4ncccc4[N+](=O)[O-])ncc3c2)c1

- EC50 [4]: 4260 nM
- EC50 [5]: 3300 nM
- EC50 [6]: 2240 nM
- EC50 (Hep 3B2): 62 nM
Structure (SMILES): C=CC(=O)Nc1cccc(C)c1Nc1ncc2cc(-c3c(Cl)c(OC)cc(OC)c3Cl)ccc2n1

- IC50 [1]: > 5000 nM
- Activity [2]: 82.6%
Structure (SMILES): COc1cc(OC)cc(-c2ccc3nc(Sc4ccnc(Cl)n4)ncc3c2)c1

- IC50 [1]: > 5000 nM
- Activity [2]: 93.1%
Structure (SMILES): COc1cc(OC)cc(-c2ccc3ncncc3c2)c1

- IC50 [1]: > 5000 nM
- Activity [2]: 53.6%
Structure (SMILES): COc1cc(OC)cc(-c2ccc3nc(Nc4nc(C)ccc4[N+](=O)[O-])ncc3c2)c1

- IC50 [1]: > 5000 nM
- Activity [2]: 96.5%
Structure (SMILES): COc1cc(OC)cc(-c2ccc3nc(-c4cccc5cnc(Cl)nc45)ncc3c2)c1

- IC50 [1]: > 5000 nM
- Activity [2]: 92.1%
Structure (SMILES): COc1cc(OC)cc(-c2ccc3nc(Nc4ncccc4[N+](=O)[O-])ncc3c2)c1

- IC50 [1]: 2090 nM
Structure (SMILES): COc1cc(OC)c(Cl)c(-c2ccc3ncncc3c2)c1Cl

- IC50 [1]: > 5000 nM
- Activity [2]: > 100%
Structure (SMILES): COc1cc(OC)cc(-c2ccc3nc(Sc4ccnc(F)n4)ncc3c2)c1

- IC50 [1]: 4450 nM
Structure (SMILES): COc1cc(OC)cc(-c2ccc3nc(Sc4nc(Cl)ccc4[N+](=O)[O-])ncc3c2)c1

- IC50 [1]: > 5000 nM
- Activity [2]: 96.5%
Structure (SMILES): COc1cc(OC)cc(-c2ccc3nc(Sc4nc(Cl)ncc4F)ncc3c2)c1

- IC50 [1]: > 5000 nM
Structure (SMILES): COc1cc(OC)cc(-c2ccc3nc(-n4ccc5cnc(Cl)nc54)ncc3c2)c1

- IC50 [9]: > 5000 nM
- IC50 [1]: < 0.5 nM
- IC50 [10]: 4.5 nM
- IC50 [15]: > 5000 nM
- IC50 [11]: > 5000 nM
- IC50 [12]: > 5000 nM
- IC50 [13]: 4.48 nM
- IC50 [16]: > 5000 nM
- IC50 [17]: > 5000 nM
- Ki [14]: 37.9 nM
- EC50 [4]: > 10000 nM
- EC50 [5]: > 10000 nM
- EC50 [6]: > 10000 nM
- EC50 [7]: 30 nM
- EC50 (Hep 3B2): 5 nM
Structure (SMILES): COc1cc(OC)cc(-c2ccc3nc(Nc4nc(Cl)ccc4[N+](=O)[O-])ncc3c2)c1
